PMC10397204, “Revealing protonation states and tracking substrate in serine hydroxymethyltransferase with room-temperature X-ray and neutron crystallography” (Communications Chemistry, 2023)

Key:
TthSHMT [1] = biological target: T1, TthSHMT (Thermus thermophilus, UniProt Q5SI56); test: joint room-temperature X-ray/neutron crystallography, crystal soak; assay type: binding; conditions: pH 5.5, 500 mM; D2O H/D exchange; labelled compound; noncovalent pre-Michaelis complex in peripheral site, protomer A, sulfate in substrate site
T1 construct: gene glyA; recombinant in E. coli BL21(DE3), codon-optimized glyA, N-terminal His6-tag with linker removed by TEV, starts at Ser3; homodimer, active site formed by residues of both protomers
T1 sequence (Q5SI56 3-407): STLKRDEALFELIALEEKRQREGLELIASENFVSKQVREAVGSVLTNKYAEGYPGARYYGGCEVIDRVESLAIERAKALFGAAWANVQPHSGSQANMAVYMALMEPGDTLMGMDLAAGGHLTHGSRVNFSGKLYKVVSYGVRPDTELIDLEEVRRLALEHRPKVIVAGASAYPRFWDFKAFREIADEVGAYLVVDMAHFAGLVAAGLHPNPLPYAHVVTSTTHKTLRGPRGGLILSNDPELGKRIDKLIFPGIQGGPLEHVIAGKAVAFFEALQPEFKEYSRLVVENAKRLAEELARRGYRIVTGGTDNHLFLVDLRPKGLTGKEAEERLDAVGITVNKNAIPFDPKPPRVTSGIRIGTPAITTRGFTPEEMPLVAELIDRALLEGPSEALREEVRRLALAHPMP

TthSHMT [2] = biological target: T1, TthSHMT; test: joint room-temperature X-ray/neutron crystallography; assay type: binding; conditions: pH 5.5; covalent; Schiff base with Lys226 (internal aldimine)

SMILES | joint room-temperature X-ray/neutron crystallography, crystal soak (TthSHMT [1]) | joint room-temperature X-ray/neutron crystallography (TthSHMT [2])
N[C@@H](CO)C(=O)O [L-Ser-d7] | we observed L-Ser-d7 bound in a pocket on the periphery of the active site | –
Cc1ncc(COP(=O)(O)O)c(C=O)c1O [PLP] | – | In TthSHMT, PLP is covalently bound to Lys226 (Lys280 in hSHMT2) through a Schiff base
